The subject of the experiment is P388 leukemia ip, CD2F1 mice, survival T/C. Nature of the experiment: NCI In Vivo Anticancer Drug Screen. Data for tumor model P388 Leukemia (intraperitoneal) in CD2F1 (CDF1) mice. The note with it: endpoint: median survival time, higher = longer survival. An outline of the steps:
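Mice carrying the transplanted tumor received test compound or vehicle. Survival was recorded in each group, and the value is the treated-group measurement divided by that of the vehicle-treated control group.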

Setting [1] is: dose: 50.0 mg/kg/injection, schedule: Q01DX005 (ip), vehicle: saline with Tween-80.
The mark [2] stands for this setting: dose: 50.0 mg/kg/injection, schedule: Q01DX009 (ip), vehicle: Klucel (hydroxypropylcellulose) (HPC).
Where [3] appears, read: dose: 100.0 mg/kg/injection, schedule: Q01DX009 (ip), vehicle: Klucel (hydroxypropylcellulose) (HPC).
[4] abbreviates: dose: 12.5 mg/kg/injection, schedule: Q04DX003 (ip), vehicle: saline with Tween-80.
[5] abbreviates: dose: 25.0 mg/kg/injection, schedule: Q04DX003 (ip), vehicle: saline with Tween-80.
Setting [6] is: dose: 50.0 mg/kg/injection, schedule: Q04DX003 (ip), vehicle: saline with Tween-80.
Where [7] appears, read: dose: 50.0 mg/kg/injection, schedule: Q01DX009 (ip), vehicle: saline with Tween-80.
Where [8] appears, read: dose: 100.0 mg/kg/injection, schedule: Q01DX009 (ip), vehicle: saline with Tween-80.
The mark [9] stands for this setting: dose: 200.0 mg/kg/injection, schedule: Q01DX009 (ip), vehicle: saline with Tween-80.

Where “and” joins values, the source holds several entries; their conditions need not be identical. Equal entries are not always repeated. Inconclusive results and toxic doses are left out.

As to `O=c1ccc2nccc3c4cc(O)ccc4n1c23`, the T/C runs as follows: (dose: 1.75 mg/kg/injection, schedule: Q01DX009 (ip), vehicle: saline with Tween-80) 98 % of control; (dose: 7.0 mg/kg/injection, schedule: Q01DX009 (ip), vehicle: saline with Tween-80) 109 % of control.

Consider `CC(C)N(CCO)CC(O)Cn1cnc2c(N)ncnc21` (stereo unspecified) (tested in a mixture with another compound), for which the T/C is, setting by setting: (dose: 60.0 mg/kg/injection, schedule: Q01DX005 (ip), vehicle: saline) 97 % of control; (dose: 120.0 mg/kg/injection, schedule: Q01DX005 (ip), vehicle: saline) 94 % of control; (dose: 240.0 mg/kg/injection, schedule: Q01DX005 (ip), vehicle: saline) 93 % of control.

Turning to `O=[N+]1C=CC=CC1=C1C=CC=CN1[O-]`, the T/C runs as follows: under setting [1], 104 % of control; (dose: 100.0 mg/kg/injection, schedule: Q01DX005 (ip), vehicle: saline with Tween-80) 110 % of control; (dose: 200.0 mg/kg/injection, schedule: Q01DX005 (ip), vehicle: saline with Tween-80) 103 % of control.

For the molecule `Cc1nc2sccn2c1C#N`, the T/C runs as follows: (dose: 12.5 mg/kg/injection, schedule: Q01DX001 (ip), vehicle: Klucel (hydroxypropylcellulose) (HPC)) 117 % of control; (dose: 25.0 mg/kg/injection, schedule: Q01DX001 (ip), vehicle: Klucel (hydroxypropylcellulose) (HPC)) 102 % of control; (dose: 50.0 mg/kg/injection, schedule: Q01DX001 (ip), vehicle: Klucel (hydroxypropylcellulose) (HPC)) 102 % of control.

Consider `S=c1cc(-c2ccccc2)c(-c2ccccc2)c(-c2ccccc2)s1`, for which the T/C runs as follows: (dose: 100.0 mg/kg/injection, schedule: Q01DX001 (ip), vehicle: saline with Tween-80) 91 % of control; (dose: 200.0 mg/kg/injection, schedule: Q01DX001 (ip), vehicle: saline with Tween-80) 94 % of control.

For the molecule `O=S(=O)(O)C1CCC(O)C2[N-]CCCC21.O=S(=O)(O)C1CCC(O)C2[N-]CCCC21.[Ni+2]` (stereo unspecified), the T/C reads like this: (dose: 25.0 mg/kg/injection, schedule: Q01DX001 (ip), vehicle: saline) 100 % of control; (dose: 50.0 mg/kg/injection, schedule: Q01DX001 (ip), vehicle: saline) 100 % of control; (dose: 100.0 mg/kg/injection, schedule: Q01DX001 (ip), vehicle: saline) 110 % of control.

Consider `CC(=O)c1cc(C(=O)O)c(O)c2ccccc12`, for which the T/C is, setting by setting: under setting [2], 90 % of control; under setting [3], 92 % of control.

For `O=C(c1ccc(C(F)(F)F)cc1)N1C2C3C=CC(C3)C2N1C(=O)c1ccc(C(F)(F)F)cc1` (stereo unspecified), the T/C runs as follows: (dose: 50.0 mg/kg/injection, schedule: Q04DX002 (ip), vehicle: Klucel (hydroxypropylcellulose) (HPC)) 102 % of control; (dose: 100.0 mg/kg/injection, schedule: Q04DX002 (ip), vehicle: Klucel (hydroxypropylcellulose) (HPC)) 106 % of control; (dose: 200.0 mg/kg/injection, schedule: Q04DX002 (ip), vehicle: Klucel (hydroxypropylcellulose) (HPC)) 102 % of control.

For the molecule `C[N+](C)(C)C1CCC2CCCCC2C1` (stereo unspecified), the T/C was 103 % of control under setting [4]; 100 % of control and 107 % of control and 98 % of control under setting [5]; 100 % of control and 104 % of control and 124 % of control under setting [6]; 98 % of control (dose: 100.0 mg/kg/injection, schedule: Q04DX003 (ip), vehicle: saline with Tween-80).

With `Cc1ccc(N=NN(C)C)cc1`, the T/C is 110 % of control (dose: 12.5 mg/kg/injection, schedule: Q01DX009 (ip), vehicle: saline with Tween-80); 104 % of control under setting [4]; 115 % of control (dose: 25.0 mg/kg/injection, schedule: Q01DX009 (ip), vehicle: saline with Tween-80); 100 % of control under setting [5]; 118 % of control (dose: 33.0 mg/kg/injection, schedule: Q01DX009 (ip), vehicle: saline with Tween-80); 122 % of control under setting [7]. Also, under setting [6], the T/C was 109 % of control.

On to `COc1cc2c(C)c[n+]3cc4cc5c(OC)c(OC)ccc5cc4cc3c2cc1OC` (tested in a mixture with another compound), for which the T/C by setting is: (dose: 3.13 mg/kg/injection, schedule: Q04DX003 (ip), vehicle: distilled water + Tween-80) 117 % of control; (dose: 6.25 mg/kg/injection, schedule: Q04DX003 (ip), vehicle: distilled water + Tween-80) 117 % of control; (dose: 12.5 mg/kg/injection, schedule: Q04DX003 (ip), vehicle: distilled water + Tween-80) 111 % of control; (dose: 25.0 mg/kg/injection, schedule: Q04DX003 (ip), vehicle: distilled water + Tween-80) 99 % of control.

For `O=C(c1ccccc1)c1ccc(NC(=O)C(F)(F)F)cc1`, the T/C was 88 % of control under setting [7], 86 % of control under setting [8] and 99 % of control under setting [9].

Regarding `O=c1[nH]c2cc(Cl)ccc2nc1/C=C(\O)c1ccco1`, the T/C runs as follows: (dose: 60.0 mg/kg/injection, schedule: Q01DX005 (ip), vehicle: saline with Tween-80) 102 % of control; (dose: 120.0 mg/kg/injection, schedule: Q01DX005 (ip), vehicle: saline with Tween-80) 94 % of control; (dose: 240.0 mg/kg/injection, schedule: Q01DX005 (ip), vehicle: saline with Tween-80) 102 % of control.

For `[O-]c1nc(C(F)(F)F)nc(C(F)(F)F)c1-[n+]1ccccc1`, the T/C by setting is: (dose: 60.0 mg/kg/injection, schedule: Q01DX005 (ip), vehicle: Klucel (hydroxypropylcellulose) (HPC)) 108 % of control; (dose: 120.0 mg/kg/injection, schedule: Q01DX005 (ip), vehicle: Klucel (hydroxypropylcellulose) (HPC)) 104 % of control; (dose: 240.0 mg/kg/injection, schedule: Q01DX005 (ip), vehicle: Klucel (hydroxypropylcellulose) (HPC)) 96 % of control.

As for `Cc1ccc(N=C(Cl)Nc2ccc(C)cc2)cc1`, the T/C by setting is: under setting [7], 105 % of control; under setting [8], 108 % of control; under setting [9], 98 % of control.

Consider `COC(CNc1nc2c(s1)c1c(O)c3c(O)c(C)c4c(c32)C(=O)C(C)(O/C=C\C(OC)C(C)C(OC(C)=O)C(C)C(O)C(C)C(O)C(C)/C=C/C=C(/C)C(=O)N1)O4)OC` (stereo unspecified), for which the T/C was 93 % of control (dose: 25.0 mg/kg/injection, schedule: Q01DX009 (ip), vehicle: Klucel (hydroxypropylcellulose) (HPC)); 95 % of control under setting [2]; 93 % of control under setting [3]; 94 % of control (dose: 200.0 mg/kg/injection, schedule: Q01DX009 (ip), vehicle: Klucel (hydroxypropylcellulose) (HPC)).

Turning to `N#CN=[N+]([O-])c1ccccc1Br`, the T/C is 98 % of control (dose: 3.12 mg/kg/injection, schedule: Q01DX009 (ip), vehicle: Klucel (hydroxypropylcellulose) (HPC)); 100 % of control (dose: 6.25 mg/kg/injection, schedule: Q01DX009 (ip), vehicle: Klucel (hydroxypropylcellulose) (HPC)); 100 % of control (dose: 6.25 mg/kg/injection, schedule: Q04DX003 (ip), vehicle: Klucel (hydroxypropylcellulose) (HPC)); 114 % of control (dose: 12.5 mg/kg/injection, schedule: Q01DX009 (ip), vehicle: Klucel (hydroxypropylcellulose) (HPC)); 91 % of control (dose: 12.5 mg/kg/injection, schedule: Q04DX003 (ip), vehicle: Klucel (hydroxypropylcellulose) (HPC)); 87 % of control (dose: 25.0 mg/kg/injection, schedule: Q04DX003 (ip), vehicle: Klucel (hydroxypropylcellulose) (HPC)).

`CS(=O)(=O)c1nc(N)c(S(N)(=O)=O)c(N)n1`: the T/C is 108 % of control under setting [2] and 111 % of control under setting [3].

Regarding `CC1=CSCC(=O)N1`, the T/C under setting [8] is 104 % of control and the T/C under setting [9] is 95 % of control.

Turning to `CCCCCCCCCCCCCCCCS(=O)CC(O)COC(=O)c1ccc(C(=O)OCC(O)CS(=O)CCCCCCCCCCCCCCCC)cc1` (stereo unspecified), the T/C is, setting by setting: (dose: 25.0 mg/kg/injection, schedule: Q01DX009 (ip), vehicle: other) 104 % of control; (dose: 50.0 mg/kg/injection, schedule: Q01DX009 (ip), vehicle: other) 114 % of control; (dose: 100.0 mg/kg/injection, schedule: Q01DX009 (ip), vehicle: other) 122 % of control.

For the molecule `COc1ccc(C(C)=O)cc1CN1CCN(Cc2cc(C(C)=O)ccc2OC)CC1`, the T/C by setting is: (dose: 50.0 mg/kg/injection, schedule: Q01DX005 (ip), vehicle: Klucel (hydroxypropylcellulose) (HPC)) 104 % of control; (dose: 100.0 mg/kg/injection, schedule: Q01DX005 (ip), vehicle: Klucel (hydroxypropylcellulose) (HPC)) 105 % of control; (dose: 200.0 mg/kg/injection, schedule: Q01DX005 (ip), vehicle: Klucel (hydroxypropylcellulose) (HPC)) 99 % of control.

Regarding `CN(Cc1ccccc1)N=NCc1ccccc1`, the T/C runs as follows: (dose: 12.5 mg/kg/injection, schedule: Q01DX005 (ip), vehicle: saline with Tween-80) 103 % of control; (dose: 25.0 mg/kg/injection, schedule: Q01DX005 (ip), vehicle: saline with Tween-80) 115 % of control; under setting [1], 154 % of control.

The values above are taken from PubChem BioAssay AID330 (DTP/NCI, 2004).
